Ends that are not written are not given here.
T1: hCTLA-4 protein (Homo sapiens, UniProt P16410)
T1 sequence (P16410 36-223): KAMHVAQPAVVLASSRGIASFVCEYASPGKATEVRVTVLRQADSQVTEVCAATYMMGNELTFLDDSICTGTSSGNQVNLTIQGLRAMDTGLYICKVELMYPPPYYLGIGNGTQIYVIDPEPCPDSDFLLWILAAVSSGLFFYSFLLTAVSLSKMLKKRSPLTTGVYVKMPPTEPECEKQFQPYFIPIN

T2: hCTLA-4 protein (human, UniProt P16410 36-161)
T2 construct: human CTLA-4 protein, soluble recombinant protein; The MST methods speak of a 'Red-NHS647 dye-labelled protein' without naming it; also called human CTLA-4 protein
T2 sequence (looked up): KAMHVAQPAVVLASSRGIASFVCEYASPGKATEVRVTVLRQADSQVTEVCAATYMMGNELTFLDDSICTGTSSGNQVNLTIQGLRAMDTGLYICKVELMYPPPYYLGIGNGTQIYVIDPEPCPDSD

B1: LC3 (peptide)
peptide: SWHWHTHVRHQM
notes: 12-mer selected from the Ph.D.-12 phage display peptide library on hCTLA-4; source: synthetic peptide (solid phase Fmoc synthesis, RP-HPLC)
B2: LC4 (peptide)
peptide: WGHSHFSHWKGR
notes: 12-mer selected from the Ph.D.-12 phage display peptide library on hCTLA-4; also called LC4 peptide; source: synthetic peptide (solid phase Fmoc synthesis, RP-HPLC)
B3: LC7 (peptide)
peptide: LDRPSSLAHLAS
notes: as for B1
B4: LC8 (peptide)
peptide: RHHSSNPRDTAP
notes: as for B1

How the values were obtained:
hCTLA-4 protein [1] = molecular target: T1, hCTLA-4 protein; assay: MST affinity of CTLA-4 binding peptides to hCTLA-4 protein; details: Monolith NT.115, Red-NHS647 dye-labelled protein, peptides from 400 μmol/L, 16 twofold dilutions, room temperature 5 min
Method: The CTLA-4 binding peptides were first diluted to 400 μmol/L with MST buffer, and twofold serial dilutions were carried out to obtain 16 concentration gradients subsequently. Equal Red-NHS647 dye-labelled protein and peptide volumes were incubated at room temperature for 5 min, the mixture was loaded onto standard capillaries (NanoTemper Technologies GmhH), and immediately placed in an MST instrument for detection. The dissociation constant (Kd) was determined using the NanoTemper analysis software MO. Affinity Analysis v2.2.4.

CT26 tumour = assay: CT26 tumour-bearing mice, peritumoral LC4; assay type: in vivo
Method: BALB/c mice were subcutaneously injected with 2 × 10^5 syngeneic CT26 cells to establish colorectal cancer xenograft model. The mice were divided into control group, LC4 (1 mg / kg) group and LC4 (4 mg / kg) group when the tumor grew to 40–80 mm.^3, peritumoral administration for 14 days. Statistical graph of A tumor volumes and B body weight of LC4 (1 mg / kg) group, LC4 (4 mg / kg) group and control group. Data are expressed as the mean ± SD (n = 5) and statistical significance between groups was determined by Student’s t test: *p < 0.05, ***p < 0.001
Fig. 6 The LC4 activation on T cells was determined in vivo. […] Data are expressed as the mean ± SD (n = 5) and statistical significance between groups was determined by Student’s t test: *p < 0.05, **p < 0.01, ***p < 0.001, ****p < 0.0001; ns = no significance TEXT PRINTED IN THE PICTURE: (A) LC4: Tumor CD3^+CD8^+(%): 6.86 (1mg/kg); Tumor CD3^+CD8^+(%): 19.3 (4mg/kg) | (B) LC4: Spleen CD8^+IFN-γ^+(%): 42.9 (1mg/kg); Spleen CD8^+IFN-γ^+(%): 42.5 (4mg/kg) | (C) LC4: Spleen CD4^+IFN-γ^+(%): 15.6 (1mg/kg); Spleen CD4^+IFN-γ^+(%): 14.2 (4mg/kg) | (D) LC4: DLN CD8^+IFN-γ^+(%): 45.8 (1mg/kg); DLN CD8^+IFN-γ^+(%): 56 (4mg/kg) | (E) LC4: DLN CD4^+IFN-γ^+(%): 2.31 (1mg/kg); DLN CD4^+IFN-γ^+(%): 2.83 (4mg/kg) DOUBTS OF THE COPYIST ABOUT THIS PICTURE: The gate numbers in the flow cytometry plots are printed without a measure or unit. […]

hCTLA-4 protein [2] = molecular target: T2, hCTLA-4 protein; assay: MST; Monolith NT.115; peptides first diluted to 400 μmol/L in MST buffer, 16 twofold dilutions; equal volumes of Red-NHS647 dye-labelled protein and peptide, room temperature 5 min, standard capillaries; details: both partners purified

Molecule	Kd (hCTLA-4 protein [1]) [µM]	Kd (hCTLA-4 protein [2]) [µM]	other results
RWKDTAYALTNN [LC1]	> 200		
HHLRIPYALDQT [LC2]	> 200		
SHRWQVWSRDRA [LC5]	> 200		
WGHSHFSHWKGR [LC4]			effect on weight of mice (in words) (CT26 tumour; 1 mg/kg/day or 4 mg/kg/day, peritumoral, 14 days, n = 5): no significant effect on the weight of mice; pathological changes in heart, liver, lung, kidney (H&E staining, in words) (CT26 tumour; mouse, in vivo): No obvious pathological changes
ASANDNRLRYTY [LC6]	> 200		
B1		0.04 ± 0.01	
B2		6.86 ± 2.63	
B3		2.14 ± 0.69	
B4		8.82 ± 0.69	
